Laboratory results as given in article PMC8524670 (Pharmacology Research & Perspectives, 2021).

Legend:
[1] = tested on: CYP2C8; assay: CYP induction in human hepatocytes; format: in vitro ADME
[2] = target: T1, human BCRP (Homo sapiens, UniProt Q9UNQ0); assay: BCRP inhibition in vesicles; format: in vitro ADME; conditions: 0.05–5 µM
T1 sequence (Q9UNQ0 1-655): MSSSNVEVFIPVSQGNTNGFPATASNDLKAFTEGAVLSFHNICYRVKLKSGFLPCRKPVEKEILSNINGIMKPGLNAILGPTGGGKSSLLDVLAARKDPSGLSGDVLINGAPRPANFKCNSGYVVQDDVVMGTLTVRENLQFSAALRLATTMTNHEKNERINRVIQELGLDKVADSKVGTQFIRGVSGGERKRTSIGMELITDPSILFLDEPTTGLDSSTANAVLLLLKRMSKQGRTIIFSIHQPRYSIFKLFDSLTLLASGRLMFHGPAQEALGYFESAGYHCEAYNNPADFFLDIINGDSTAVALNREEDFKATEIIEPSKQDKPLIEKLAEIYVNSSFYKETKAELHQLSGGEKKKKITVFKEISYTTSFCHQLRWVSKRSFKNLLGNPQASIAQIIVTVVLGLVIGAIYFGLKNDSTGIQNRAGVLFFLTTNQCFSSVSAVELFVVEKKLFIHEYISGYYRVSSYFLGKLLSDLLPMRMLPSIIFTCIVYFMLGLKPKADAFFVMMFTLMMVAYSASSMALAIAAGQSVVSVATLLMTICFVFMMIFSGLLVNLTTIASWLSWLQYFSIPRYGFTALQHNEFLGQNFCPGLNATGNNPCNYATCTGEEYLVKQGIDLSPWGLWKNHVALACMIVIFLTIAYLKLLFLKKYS

[3] = target: T2, OATP1B1 (Homo sapiens, UniProt Q9Y6L6); assay: SLC transportation assay in HEK293 cells; format: in vitro ADME; conditions: uptake ratios <2 at 0.1, 0.3, 5 µM
T2 sequence (Q9Y6L6 1-691): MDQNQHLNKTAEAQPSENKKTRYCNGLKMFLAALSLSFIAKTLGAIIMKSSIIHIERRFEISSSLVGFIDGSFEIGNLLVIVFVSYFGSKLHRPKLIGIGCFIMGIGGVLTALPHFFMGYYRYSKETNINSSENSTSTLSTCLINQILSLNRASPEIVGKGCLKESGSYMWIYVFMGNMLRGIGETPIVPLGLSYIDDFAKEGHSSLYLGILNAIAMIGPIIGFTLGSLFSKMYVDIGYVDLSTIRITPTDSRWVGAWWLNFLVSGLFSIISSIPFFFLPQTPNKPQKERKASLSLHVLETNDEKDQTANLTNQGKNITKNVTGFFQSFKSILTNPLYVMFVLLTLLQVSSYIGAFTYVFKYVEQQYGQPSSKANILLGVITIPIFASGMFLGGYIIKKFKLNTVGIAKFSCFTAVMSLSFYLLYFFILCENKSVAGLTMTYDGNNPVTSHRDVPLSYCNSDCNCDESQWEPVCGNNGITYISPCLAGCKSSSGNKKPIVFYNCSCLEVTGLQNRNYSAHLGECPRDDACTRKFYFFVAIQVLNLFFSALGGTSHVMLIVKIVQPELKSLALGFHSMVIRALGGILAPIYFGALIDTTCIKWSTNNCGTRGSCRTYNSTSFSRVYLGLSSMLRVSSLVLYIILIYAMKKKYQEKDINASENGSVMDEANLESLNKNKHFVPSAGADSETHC

[4] = target: T2, OATP1B1; assay: SLC inhibition assay in HEK293 cells; format: in vitro ADME; conditions: 0.05–5 µM
[5] = Clinical pharmacokinetic parameters of zanubrutinib; format: in vivo, human
[6] = tested on: CYP3A4; conditions: coadministration of zanubrutinib; cited from earlier work
[7] = tested on: CYP2C19; conditions: coadministration of zanubrutinib; cited from earlier work
[8] = estimated from PBPK modeling; cited from earlier work
[9] = target: CYP3A (Homo sapiens, UniProt P08684); assay: CYP reversible inhibition in HLMs; conditions: for R1: DDI basic model, hepatic; for R1 , gut: intestinal CYP3A, basic model; for Ag / Ah: static model term; for Ag: gut inhibition; for Ah: liver inhibition
[10] = target: T3, CYP2B6 (Homo sapiens, UniProt P20813); assay: Time-dependent CYP inhibition in HLMs; conditions: 10 µM zanubrutinib, 30 min pre-incubation with HLMs and NADPH
T3 sequence (P20813 1-491): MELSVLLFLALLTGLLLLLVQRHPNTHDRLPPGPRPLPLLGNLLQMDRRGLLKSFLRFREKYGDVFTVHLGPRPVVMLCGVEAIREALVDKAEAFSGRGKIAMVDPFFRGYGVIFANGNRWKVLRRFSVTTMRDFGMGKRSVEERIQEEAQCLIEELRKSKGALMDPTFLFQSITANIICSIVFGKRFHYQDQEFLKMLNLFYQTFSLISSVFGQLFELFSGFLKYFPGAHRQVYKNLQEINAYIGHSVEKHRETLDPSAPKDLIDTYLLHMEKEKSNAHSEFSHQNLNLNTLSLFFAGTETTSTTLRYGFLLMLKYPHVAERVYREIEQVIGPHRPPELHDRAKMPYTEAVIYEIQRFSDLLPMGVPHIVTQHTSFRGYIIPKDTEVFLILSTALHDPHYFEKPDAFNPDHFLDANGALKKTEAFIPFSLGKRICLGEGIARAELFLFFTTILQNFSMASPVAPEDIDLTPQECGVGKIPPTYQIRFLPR

[11] = CYP phenotyping in HLMs with chemical inhibitors; conditions: 1 μM

CYP3A, sequence (P08684 2-503): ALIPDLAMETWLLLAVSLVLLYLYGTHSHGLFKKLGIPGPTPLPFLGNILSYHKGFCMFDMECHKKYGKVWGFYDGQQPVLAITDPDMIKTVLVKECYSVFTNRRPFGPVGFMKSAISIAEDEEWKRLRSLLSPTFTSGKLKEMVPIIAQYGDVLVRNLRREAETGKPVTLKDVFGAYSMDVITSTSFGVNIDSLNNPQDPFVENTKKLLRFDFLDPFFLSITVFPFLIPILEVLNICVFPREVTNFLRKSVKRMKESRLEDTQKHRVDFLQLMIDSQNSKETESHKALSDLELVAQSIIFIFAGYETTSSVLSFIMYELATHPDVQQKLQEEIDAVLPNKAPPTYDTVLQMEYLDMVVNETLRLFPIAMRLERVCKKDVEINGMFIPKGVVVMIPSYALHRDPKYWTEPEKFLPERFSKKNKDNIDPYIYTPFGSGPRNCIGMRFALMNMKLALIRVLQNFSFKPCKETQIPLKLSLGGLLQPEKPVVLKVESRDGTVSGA

## C=CC(=O)N1CCC([C@@H]2CCNc3c(C(N)=O)c(-c4ccc(Oc5ccccc5)cc4)nn32)CC1 [zanubrutinib]
[1]; DDI basic model value for induction
  R 3: […]
[1]; human, cryopreserved human hepatocytes
  EC50 at 3 days: […]
[1]; static model term, induction in liver
  Ch: […]
[2]
  BCRP inhibition: did not inhibit BCRP activity
[3]
  Substrate status: unlikely to be a substrate
[4]
  Inhibition of uptake activity: not inhibited
[5]; 160 mg BID
  Igut (intestinal concentration, Dose/250 ml): […]
[5]; estimated from a human mass balance study
  Fa (fraction absorbed): 0.70
[6]
  Reduction of AUC of CYP3A probe midazolam: 47.5%
[7]
  Reduction of AUC of CYP2C19 probe omeprazole: 36.5%
[8]
  Fg (fraction available after intestinal metabolism): 0.44
[9]; midazolam
  R1: 1.00
  R1 , gut: 241
  Ag: 0.45
  Ah: 0.99
[9]; testosterone
  R1: 1.00
  R1 , gut: 58
  Ag: 0.77
  Ah: 1.00
[10]
  Percent loss of enzymatic activity: 15.5%
[11]; 30-min incubation with HLMs + CYP3A inhibitor ketoconazole 1 µM
  Zanubrutinib remaining: 98.9%
[11]; 30-min incubation with HLMs, no inhibitor
  Zanubrutinib remaining: 32.8%
